From BindingDB's records for doi:10.7270/Q29G5KF0 (The Scripps Research Institute Molecular Screening Center, 2013)

Molecular target: Kallikrein-7 (Homo sapiens, UniProt P49862)
Sequence (P49862 whole entry): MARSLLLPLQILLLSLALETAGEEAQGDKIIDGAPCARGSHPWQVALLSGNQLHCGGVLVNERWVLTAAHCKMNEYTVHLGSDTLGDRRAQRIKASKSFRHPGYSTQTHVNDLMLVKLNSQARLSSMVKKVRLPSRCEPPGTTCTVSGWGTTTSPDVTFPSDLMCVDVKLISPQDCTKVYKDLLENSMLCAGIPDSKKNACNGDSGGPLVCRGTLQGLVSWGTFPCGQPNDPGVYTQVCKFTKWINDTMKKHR

| EC50 [µM] | SMILES |
| --- | --- |
| 12.1 | COc1ccccc1C1CC(c2ccccc2)=Nc2nnnn21 (stereo not given) [SMR000107979] |
| 52.4 | COc1ccc(C2C(C(=O)N3CCOCC3)=C(C)N=C3CC(C)(C)CC(=O)C32)c(OC)c1 (stereo not given) [MLS000076547] |
| > 69.5 | COCCN1Cc2cc(=O)n3c(nc4ccccc43)c2=C1N [SMR000369291] |
| > 69.5 | COC(=O)C1=CN=CC(C(=O)OC)C1c1ccc(C(=O)OC)cc1 (stereo not given) [MLS000111732] |

More lines, now with the values behind:

| SMILES | EC50 [µM] |
| --- | --- |
| COC(=O)CC1=C(C(=O)OC)C(c2ccccc2[N+](=O)[O-])C(C#N)C(=N)O1 [methyl (4S)-6-amino-5-cyano-2-(2-methoxy-2-oxoethyl)-4-(2-nitrophenyl)-4H-pyran-3-carboxylate] | 8.2 |
| CC1=NC2=C(C(=O)CC(C)(C)C2)C(c2cccnc2)C1C#N (stereo not given) [2,7,7-trimethyl-5-oxo-4-pyridin-3-yl-1,4,6,8-tetrahydroquinoline-3-carbonitrile] | > 69.5 |
| COC(=O)c1ccc(C2C3=C(CC(C)(C)CC3=O)N=C(C)C2C#N)cc1 (stereo not given) [methyl 4-(3-cyano-2,7,7-trimethyl-5-oxo-1,4,6,8-tetrahydroquinolin-4-yl)benzoate] | 20.8 |
| COc1ccccc1C1CC(c2ccc(C)cc2)=Nc2nnnn21 (stereo not given) | 23.5 |
| C=CCOC(=O)C1=C(C)N=C(SCC(=O)NC(=O)OCC)C(C#N)C1c1cccnc1 (stereo not given) [prop-2-enyl 5-cyano-6-[2-(ethoxycarbonylamino)-2-oxidanylidene-ethyl]sulfanyl-2-methyl-4-pyridin-3-yl-1,4-dihydropyridine-3-carboxylate] | 4.56 |
| COC(=O)c1[nH]n(-c2ccccc2)c2c(O)n(-c3ccccc3OC)c(=O)c1-2 [methyl 5-(2-methoxyphenyl)-4,6-bis(oxidanylidene)-1-phenyl-3a,6a-dihydropyrrolo[3,4-c]pyrazole-3-carboxylate] | > 69.5 |
